Assay results reported in patent US11331299B2, “Medicinal use of serrulatane diterpenes” (The University of Sydney, priority 2016, dated 2022).
pIC50: −log10 of the molar value. Read-outs that look alike come from different tables or passages of the source.

Tests used:
Sirtuin 7 (h) [1] = molecular target: T1, Sirtuin 7 (h) (Homo sapiens, UniProt Q9NRC8); test: Epigenetic enzyme assay, Sirtuins; type: biochemical; conditions: Table 10; read-out: Reference IC50
T1 sequence (Q9NRC8 1-400): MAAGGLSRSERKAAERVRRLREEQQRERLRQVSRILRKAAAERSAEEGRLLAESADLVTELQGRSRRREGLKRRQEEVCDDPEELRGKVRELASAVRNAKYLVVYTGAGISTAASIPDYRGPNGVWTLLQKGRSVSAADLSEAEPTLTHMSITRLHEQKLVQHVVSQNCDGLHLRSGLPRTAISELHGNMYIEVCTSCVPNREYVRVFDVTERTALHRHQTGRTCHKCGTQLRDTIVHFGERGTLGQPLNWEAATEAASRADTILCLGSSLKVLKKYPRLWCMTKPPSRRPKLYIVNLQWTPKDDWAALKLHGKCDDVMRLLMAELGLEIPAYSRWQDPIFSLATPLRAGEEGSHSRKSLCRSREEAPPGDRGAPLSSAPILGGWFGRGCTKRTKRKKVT

Sirtuin 7 (h) [2] = molecular target: T1, Sirtuin 7 (h); conditions: reference compound; fluorogenic HDAC 25 μM; 60 min/37° C.; cited from earlier work
ASH1L (h) bromodomain [3] = molecular target: T2, ASH1L (h) bromodomain (Homo sapiens, UniProt Q9NR48); test: Epigenetic binding assay, Bromodomain
T2 construct: ASH1L (h) bromodomain

[4] = molecular target: T3, KAT2A (GCN5L2) (h) bromodomain (Homo sapiens, UniProt Q92830); test: Epigenetic binding assay, Bromodomain; conditions: Table 4; read-out: Reference IC50
T3 construct: Bromodomain
T3 sequence (Q92830 728-832 limits assumed): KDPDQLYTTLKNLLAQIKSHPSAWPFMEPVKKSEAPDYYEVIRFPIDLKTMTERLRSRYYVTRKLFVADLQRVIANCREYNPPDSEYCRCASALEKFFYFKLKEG

PCAF (h) bromodomain [5] = molecular target: T4, PCAF (h) bromodomain (Homo sapiens, UniProt Q92831); test: Epigenetic binding assay, Bromodomain; conditions: Table 4; read-out: Reference IC50
T4 construct: Bromodomain
T4 sequence (Q92831 723-827 limits assumed): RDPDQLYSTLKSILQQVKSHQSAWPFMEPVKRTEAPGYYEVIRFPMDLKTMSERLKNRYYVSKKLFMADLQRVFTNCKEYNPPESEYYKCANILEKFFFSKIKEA

ATAD2A (h) bromodomain [6] = molecular target: T5, ATAD2A (h) bromodomain (Homo sapiens, UniProt Q6PL18); test: Epigenetic binding assay, Bromodomain; conditions: Table 4; read-out: Reference IC50
T5 construct: Bromodomain
T5 sequence (Q6PL18 980-1092 limits assumed): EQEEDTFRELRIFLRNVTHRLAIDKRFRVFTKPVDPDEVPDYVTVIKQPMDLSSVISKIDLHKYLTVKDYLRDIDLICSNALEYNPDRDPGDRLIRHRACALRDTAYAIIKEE

ASH1L (h) bromodomain [7] = molecular target: T2, ASH1L (h) bromodomain; conditions: ligand biotin-H4 di acetyl Lys 5/8 75 nM; 30 min/RT; AlphaScreen; read-out: Reference IC50; cited from earlier work
[8] = molecular target: T3, KAT2A (GCN5L2) (h) bromodomain; conditions: ligand biotin-H4 tetra acetyl Lys 5/8/12/16 30 nM; 15 min/RT; AlphaScreen; read-out: Reference IC50; cited from earlier work
PCAF (h) bromodomain [9] = molecular target: T4, PCAF (h) bromodomain; conditions: ligand biotin-H4 tetra acetyl Lys 5/8/12/16 100 nM; 30 min/RT; AlphaScreen; read-out: Reference IC50; cited from earlier work
ATAD2A (h) bromodomain [10] = molecular target: T5, ATAD2A (h) bromodomain; conditions: ligand biotin-H4 tetra acetyl Lys 5/8/12/16 100 nM; 30 min/RT; AlphaScreen; read-out: Reference IC50; cited from earlier work
BAP1 (h) [11] = molecular target: T6, BAP1 (h) (Homo sapiens, UniProt Q92560); test: Epigenetic enzyme assay, Ubiquitin modifying enzymes; type: biochemical; conditions: Table 10; read-out: Reference IC50
T6 sequence (Q92560 1-729): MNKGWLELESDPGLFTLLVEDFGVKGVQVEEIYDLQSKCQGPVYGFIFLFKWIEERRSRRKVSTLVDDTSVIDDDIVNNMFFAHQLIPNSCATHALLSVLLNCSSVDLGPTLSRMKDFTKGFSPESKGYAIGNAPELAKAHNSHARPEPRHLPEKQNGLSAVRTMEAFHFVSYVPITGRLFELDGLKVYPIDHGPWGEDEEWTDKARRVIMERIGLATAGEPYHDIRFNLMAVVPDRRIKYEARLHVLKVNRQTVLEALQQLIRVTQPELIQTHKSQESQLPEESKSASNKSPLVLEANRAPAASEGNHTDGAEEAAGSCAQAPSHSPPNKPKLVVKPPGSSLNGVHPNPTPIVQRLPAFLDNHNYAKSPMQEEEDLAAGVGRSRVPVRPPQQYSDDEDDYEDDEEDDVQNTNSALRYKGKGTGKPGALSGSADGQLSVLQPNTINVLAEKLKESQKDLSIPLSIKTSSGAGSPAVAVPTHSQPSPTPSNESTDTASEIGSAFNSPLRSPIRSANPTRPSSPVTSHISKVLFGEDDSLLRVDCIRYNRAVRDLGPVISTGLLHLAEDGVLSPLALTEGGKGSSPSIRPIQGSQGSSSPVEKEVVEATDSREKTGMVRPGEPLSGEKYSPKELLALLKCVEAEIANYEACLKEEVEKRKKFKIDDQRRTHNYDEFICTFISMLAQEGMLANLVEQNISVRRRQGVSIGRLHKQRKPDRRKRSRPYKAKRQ

USP 14 (h) [12] = molecular target: T7, USP 14 (h) (Homo sapiens, UniProt P54578); test: as above; type: biochemical; conditions: Table 10; read-out: Reference IC50
USP 21 (h) [13] = molecular target: T8, USP 21 (h) (Homo sapiens, UniProt Q9UK80); test: as above; type: biochemical; conditions: Table 10; read-out: Reference IC50
T8 sequence (Q9UK80 1-565): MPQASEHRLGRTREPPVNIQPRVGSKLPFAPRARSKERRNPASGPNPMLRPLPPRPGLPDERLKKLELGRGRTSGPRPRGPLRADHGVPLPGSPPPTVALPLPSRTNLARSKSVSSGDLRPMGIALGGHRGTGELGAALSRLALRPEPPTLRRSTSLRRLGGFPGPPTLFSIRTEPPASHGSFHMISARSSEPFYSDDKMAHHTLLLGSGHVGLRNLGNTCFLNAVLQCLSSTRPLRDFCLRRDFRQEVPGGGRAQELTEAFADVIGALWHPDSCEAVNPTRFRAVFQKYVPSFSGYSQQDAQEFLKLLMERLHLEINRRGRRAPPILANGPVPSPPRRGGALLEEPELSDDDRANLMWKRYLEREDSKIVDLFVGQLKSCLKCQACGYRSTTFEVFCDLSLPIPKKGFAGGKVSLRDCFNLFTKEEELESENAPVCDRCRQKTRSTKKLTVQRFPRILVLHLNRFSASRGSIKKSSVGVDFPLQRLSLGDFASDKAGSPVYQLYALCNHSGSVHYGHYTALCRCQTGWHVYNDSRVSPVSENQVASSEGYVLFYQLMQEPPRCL

USP 7 (h) [14] = molecular target: T9, USP 7 (h) (Homo sapiens, UniProt Q93009); test: as above; type: biochemical; conditions: Table 10; read-out: Reference IC50
BAP1 (h) [15] = molecular target: T6, BAP1 (h); conditions: reference compound; LanthaScreen DUB substrate 20 nM, 180 min/RT; cited from earlier work
USP 10 (h) = USP 10 (h) (Homo sapiens, UniProt Q14694); conditions: reference compound; LanthaScreen DUB substrate 10 nM, 60 min/22° C.; cited from earlier work
USP 14 (h) [16] = molecular target: T7, USP 14 (h); conditions: reference compound; LanthaScreen DUB substrate 10 nM, 240 min/RT; cited from earlier work
USP 21 (h) [17] = molecular target: T8, USP 21 (h); conditions: reference compound; LanthaScreen DUB substrate 10 nM, 15 min/RT; cited from earlier work
USP 7 (h) [18] = molecular target: T9, USP 7 (h); conditions: reference compound; LanthaScreen DUB substrate 10 nM, 60 min/RT; cited from earlier work

T7 sequence (P54578 whole entry): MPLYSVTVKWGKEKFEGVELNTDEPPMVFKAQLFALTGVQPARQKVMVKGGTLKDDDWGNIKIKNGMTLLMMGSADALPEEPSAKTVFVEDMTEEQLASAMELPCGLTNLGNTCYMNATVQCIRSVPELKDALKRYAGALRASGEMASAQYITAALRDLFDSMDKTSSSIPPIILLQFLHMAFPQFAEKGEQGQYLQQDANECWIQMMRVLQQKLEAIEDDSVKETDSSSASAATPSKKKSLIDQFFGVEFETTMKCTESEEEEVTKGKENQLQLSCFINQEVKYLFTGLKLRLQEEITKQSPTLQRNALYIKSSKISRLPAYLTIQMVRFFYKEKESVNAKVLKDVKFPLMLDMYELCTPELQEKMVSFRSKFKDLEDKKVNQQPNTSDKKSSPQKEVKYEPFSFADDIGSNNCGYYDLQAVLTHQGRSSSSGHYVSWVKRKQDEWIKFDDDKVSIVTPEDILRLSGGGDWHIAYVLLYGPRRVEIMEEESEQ
T9 sequence (Q93009 whole entry): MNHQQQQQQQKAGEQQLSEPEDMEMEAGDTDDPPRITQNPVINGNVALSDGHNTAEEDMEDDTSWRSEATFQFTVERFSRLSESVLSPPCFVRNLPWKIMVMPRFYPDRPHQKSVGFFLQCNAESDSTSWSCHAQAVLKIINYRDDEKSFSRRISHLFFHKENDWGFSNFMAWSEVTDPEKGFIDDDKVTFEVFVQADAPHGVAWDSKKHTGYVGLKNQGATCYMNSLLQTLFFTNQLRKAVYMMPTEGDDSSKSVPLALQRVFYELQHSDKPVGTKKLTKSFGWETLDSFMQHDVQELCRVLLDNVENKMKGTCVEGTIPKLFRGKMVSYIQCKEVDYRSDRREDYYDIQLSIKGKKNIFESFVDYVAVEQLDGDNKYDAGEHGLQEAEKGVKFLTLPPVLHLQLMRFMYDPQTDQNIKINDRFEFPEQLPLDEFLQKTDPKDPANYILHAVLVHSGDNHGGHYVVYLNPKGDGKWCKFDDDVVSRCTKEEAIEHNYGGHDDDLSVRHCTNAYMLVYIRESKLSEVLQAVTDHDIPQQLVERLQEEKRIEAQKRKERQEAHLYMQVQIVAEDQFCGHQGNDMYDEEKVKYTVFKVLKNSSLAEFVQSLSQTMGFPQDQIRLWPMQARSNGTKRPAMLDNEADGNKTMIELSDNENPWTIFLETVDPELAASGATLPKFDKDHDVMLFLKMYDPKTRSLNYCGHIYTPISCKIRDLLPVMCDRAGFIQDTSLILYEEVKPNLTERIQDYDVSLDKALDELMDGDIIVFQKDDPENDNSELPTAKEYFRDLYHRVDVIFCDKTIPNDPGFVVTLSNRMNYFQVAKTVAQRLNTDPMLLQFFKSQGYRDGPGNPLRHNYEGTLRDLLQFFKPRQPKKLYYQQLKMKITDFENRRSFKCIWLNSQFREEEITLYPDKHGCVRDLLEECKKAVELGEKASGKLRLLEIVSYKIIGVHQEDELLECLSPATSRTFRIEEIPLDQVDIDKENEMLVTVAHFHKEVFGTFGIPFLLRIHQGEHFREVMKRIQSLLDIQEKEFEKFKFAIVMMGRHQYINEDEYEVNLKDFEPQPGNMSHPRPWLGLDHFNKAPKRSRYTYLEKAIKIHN
Chain of USP 10 (h) (Q14694 whole entry): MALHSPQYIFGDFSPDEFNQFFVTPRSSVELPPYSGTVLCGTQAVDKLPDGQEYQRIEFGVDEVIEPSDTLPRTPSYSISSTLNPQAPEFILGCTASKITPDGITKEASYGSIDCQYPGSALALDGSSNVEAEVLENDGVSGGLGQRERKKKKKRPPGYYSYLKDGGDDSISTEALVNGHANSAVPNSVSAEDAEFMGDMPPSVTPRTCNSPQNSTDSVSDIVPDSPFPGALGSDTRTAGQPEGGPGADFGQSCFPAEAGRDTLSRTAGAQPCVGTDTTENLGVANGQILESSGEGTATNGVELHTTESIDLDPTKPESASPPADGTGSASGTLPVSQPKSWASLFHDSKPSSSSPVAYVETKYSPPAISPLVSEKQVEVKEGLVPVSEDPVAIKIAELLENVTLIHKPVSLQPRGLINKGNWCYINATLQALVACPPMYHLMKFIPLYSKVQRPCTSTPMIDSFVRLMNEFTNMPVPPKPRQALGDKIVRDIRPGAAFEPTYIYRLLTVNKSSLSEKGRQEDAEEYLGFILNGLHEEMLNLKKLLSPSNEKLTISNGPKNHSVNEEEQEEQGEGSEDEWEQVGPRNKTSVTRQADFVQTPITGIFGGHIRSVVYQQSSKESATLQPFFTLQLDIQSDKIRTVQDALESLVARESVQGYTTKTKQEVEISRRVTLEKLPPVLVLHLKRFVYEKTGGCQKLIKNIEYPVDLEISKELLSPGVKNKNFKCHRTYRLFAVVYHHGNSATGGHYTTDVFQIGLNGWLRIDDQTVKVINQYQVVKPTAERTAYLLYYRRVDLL

## O=C1c2ccccc2C(=O)c2c(NCCc3ccc(O)cc3)ccc(NCCc3ccc(O)cc3)c21 [JFD00244, reference compound]
Sirtuin 7 (h) [1]
  pIC50: 2.89
Sirtuin 7 (h) [2]
  pIC50: 2.89

## Cc1sc2c(c1C)C(c1ccc(Cl)cc1)=N[C@@H](CC(=O)OC(C)(C)C)c1nnc(C)n1-2 [JQ-1, reference compound]
ASH1L (h) bromodomain [3]; Table 4, read-out: Reference IC50
  pIC50: 4.86
ASH1L (h) bromodomain [3]; Table 9, inhibition/concentration-response curve, read-out: IC50
  pIC50: 5.06
[4]
  pIC50: 4.35
PCAF (h) bromodomain [5]
  pIC50: 4.92
ATAD2A (h) bromodomain [6]
  pIC50: 4.15
ASH1L (h) bromodomain [7]
  pIC50: 4.86
[8]
  pIC50: 4.35
PCAF (h) bromodomain [9]
  pIC50: 4.92
ATAD2A (h) bromodomain [10]
  pIC50: 4.15

## Ubiquitin Aldehyde
BAP1 (h) [11]
  pIC50: 6.64
USP 14 (h) [12]
  pIC50: 8.40
USP 21 (h) [13]
  pIC50: 6.77
USP 7 (h) [14]
  pIC50: 6.96
BAP1 (h) [15]
  pIC50: 6.64
USP 10 (h)
  pIC50: 6.64
USP 14 (h) [16]
  pIC50: 8.40
USP 21 (h) [17]
  pIC50: 6.77
USP 7 (h) [18]
  pIC50: 6.96
